{
  "source": "patent US7674586B2",
  "about": "“Methods of identifying modulators of L-glutamate-gated chloride channel proteins from Rhipicephalus sanguineus” (Merial Limited, priority 2000, dated 2010)",
  "key": {"RsGluCl2": {"tested_on": "RsGluCl2", "assay": "Two-microelectrode voltage clamp of Xenopus oocytes injected with RsGluCl2 RNA", "assay_type": "cell-based, Rhipicephalus sanguineus", "conditions": "for channel activation / current in response (qualitative): RsGluCl2 expressed in Xenopus oocytes as a single functional channel", "procedure": "(§1) Xenopus laevis oocytes were prepared and injected using standard methods previously described [Arena, J. P., Liu, K. K., Paress, P. S. & Cully, D. P. Mol. Pharmacol. 40, 368-374 (1991); Arena, J. P., Liu, K. K., Paress, P. S., Schaeffer, J. M. & Cully, D. F., Mol. Brain. Res. 15, 339-348 (1992)]. Adult female Xenopus laevis were anesthetized with 0.17% tricaine methanesulfonate and the ovaries were surgically removed and placed in a solution consisting of (mM): NaCl 82.5, KCl 2, MgCl2 1, HEPES 5, NaPyruvate 2.5, Penicillin G. 100,000 units/L, Streptomycin Sulfate 1000 mg/L, pH 7.5 (Mod. OR-2). Ovarian lobes were broken open, rinsed several times in Mod. OR-2, and incubated in 0.2% collagenase (Sigma, Type1) in Mod. OR-2 at room temperature with gentle shaking. After 1 hour the collagenase solution was renewed and the oocytes were incubated for an additional 30-90 min until approximately 50% of the oocytes were released from the ovaries. Stage V and VI oocytes were selected and placed in media containing (mM): NaCl 96, KCl 2, MgCl2 1, CaCl2 1.8, HEPES 5, NaPyruvate 2.5, theophylline 0.5, gentamicin […], pH 7.5 (ND-96) for 16-24 hours before injection. Oocytes were injected with 50 nl of Dv8, Dv9, RsGluCl1 or RsGluCl2 RNA at a concentration of 0.2 mg/ml. Oocytes were incubated at 18° C. for 1-6 days in ND-96 before recording.\nRecordings were made at room temperature in modified ND-96 consisting of (mM: NaCl 96, MgCl2 1, CaCl2 0.1, BaCl2 3.5, HEPES 5, pH 7.5. Oocytes were voltage clamped using a Dagan CA1 two microelectrode amplifier (Dagan Corporation, Minneapolis, Minn.) interfaced to a Macintosh 7100/80 computer. The current passing electrode was filled with 0.7 M KCl, 1.7 M KCitrate, and the voltage recording electrode was filled with 1 M KCl. Throughout the experiment oocytes were superfused with modified ND-96 (control solution) or with ND-96 containing potential channel activators and blockers at a rate of approximately 3 ml/min. Data were acquired at 100 Hz and filtered at 33.3 Hz using Pulse software from HEKA Elektronik (Lambrecht, Germany). […]"}, "RsGluCl1 (T12)": {"tested_on": "RsGluCl1 (T12)", "assay": "Two-microelectrode voltage clamp of Xenopus oocytes injected with RsGluCl1 T12 RNA", "assay_type": "cell-based, Rhipicephalus sanguineus", "conditions": "for channel activation / current in response (qualitative): RsGluCl1 expressed in Xenopus oocytes", "procedure": "as §1\nRecordings were made at room temperature in modified ND-96 consisting of (mM: NaCl 96, MgCl2 1, CaCl2 0.1, BaCl2 3.5, HEPES 5, pH 7.5. Oocytes were voltage clamped using a Dagan CA1 two microelectrode amplifier (Dagan Corporation, Minneapolis, Minn.) interfaced to a Macintosh 7100/80 computer. The current passing electrode was filled with 0.7 M KCl, 1.7 M KCitrate, and the voltage recording electrode was filled with 1 M KCl. Throughout the experiment oocytes were superfused with modified ND-96 (control solution) or with ND-96 containing potential channel activators and blockers at a rate of approximately 3 ml/min. Data were acquired at 100 Hz and filtered at 33.3 Hz using Pulse software from HEKA Elektronik (Lambrecht, Germany). All recordings were performed from a holding potential of either 0 or −30 mV.\ncRNA was synthesized from the RsGluCl 1S clone T12 and expressed in Xenopus oocytes. The channel encoded by RsGluCl-1 is a glutamate-gated chloride channel activated by IVM-PO4."}},
  "data": [
    {"compound": "N[C@@H](CCC(=O)O)C(=O)O", "note": "[glutamate]", "values": [
      {"measurement": "channel activation / current in response (qualitative)", "setting": "RsGluCl2", "value": "failed to activate a current"},
      {"measurement": "concentration at which current activation was maximal", "setting": "RsGluCl1 (T12); RsGluCl1 T12 RNA in Xenopus oocytes, FIG. 10", "value": 10, "unit": "µM"},
      {"measurement": "channel activation / current in response (qualitative)", "setting": "RsGluCl1 (T12)", "value": "exhibits a current"}
    ]},
    {"compound": "CC[C@H](C)[C@H]1O[C@]2(CC[C@@H]1C)C[C@@H]1C[C@@H](C/C=C(\\C)[C@@H](O[C@H]3C[C@H](OC)[C@@H](O[C@H]4C[C@H](OC)[C@@H](O)[C@H](C)O4)[C@H](C)O3)[C@@H](C)/C=C/C=C3\\CO[C@@H]4[C@H](O)C(C)=C[C@@H](C(=O)O1)[C@]34O)O2", "note": "[ivermectin, 22,23-dihydro-avermectin B1a]", "values": [
      {"measurement": "concentration at which current activation was maximal", "setting": "RsGluCl2; RsGluCl2 expressed in Xenopus oocytes, FIG. 11", "value": "~1", "unit": "µM"},
      {"measurement": "current produced on application", "setting": "RsGluCl1 (T12); 100 nM, compared with the glutamate-activated current, RsGluCl1 T12 in Xenopus oocytes", "value": "produces a similar although non-inactivating current"}
    ]},
    {"compound": "ivermectin phosphate", "values": [
      {"measurement": "channel activation / current in response (qualitative)", "setting": "RsGluCl2", "value": "exhibit a current"},
      {"measurement": "channel activation / current in response (qualitative)", "setting": "RsGluCl1 (T12)", "value": "activated"}
    ]}
  ]
}
